Results from ChEMBL document CHEMBL1201862, “PubChem BioAssay data set” (2004).
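Where inhibition never reached the appropriate level, the endpoint shown equals the highest concentration tested. Otherwise, values were interpolated linearly from a five-concentration, 48-hour dose response in 96-well plates. GI50 is the concentration that inhibits growth by half.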 Activity calls are given as the source filed them. Cut-off read from the data, not from the text of the source: active = GI50 up to about 1.1 µM and inactive = higher.

Assays:
Experiment in all cases: DTP human tumour cell line panel, 48 h
HCT-116 = tested on: HCT-116
NCI-H460 = tested on: NCI-H460
LOX IMVI = tested on: LOX IMVI
SK-OV-3 = tested on: SK-OV-3
SR = tested on: SR
M14 = tested on: M14
SF-268 = tested on: SF-268
A549 = tested on: A549
HCC 2998 = tested on: HCC 2998
DU-145 = tested on: DU-145
MDA-MB-435 = tested on: MDA-MB-435
COLO 205 = tested on: COLO 205
ACHN = tested on: ACHN
CCRF-CEM = tested on: CCRF-CEM
NCI-H226 = tested on: NCI-H226
SK-MEL-28 = tested on: SK-MEL-28
RPMI-8226 = tested on: RPMI-8226
KM12 = tested on: KM12
SW-620 = tested on: SW-620
DLD-1 = tested on: DLD-1

SMILES | GI50 (HCT-116) | GI50 (NCI-H460) | GI50 (LOX IMVI) | GI50 (SK-OV-3) | GI50 (SR) | GI50 (M14) | GI50 (SF-268) | GI50 (A549) | GI50 (HCC 2998) | GI50 (DU-145) | GI50 (MDA-MB-435) | GI50 (COLO 205) | GI50 (ACHN) | GI50 (CCRF-CEM) | GI50 (NCI-H226) | GI50 (SK-MEL-28) | GI50 (RPMI-8226) | GI50 (KM12) | GI50 (SW-620) | GI50 (DLD-1)
Nc1nc(-c2cccnc2)cc(-c2cc(-c3cccnc3)nc(N)n2)n1 | > 100 µM (inactive) | > 100 µM (inactive) | > 100 µM (inactive) | > 100 µM (inactive) | 55.8 µM (inactive) | > 100 µM (inactive) | > 100 µM (inactive) | > 100 µM (inactive) | > 100 µM (inactive) | > 100 µM (inactive) | 50.1 µM (inactive) | > 100 µM (inactive) | > 100 µM (inactive) | 75.2 µM (inactive) | > 100 µM (inactive) | > 100 µM (inactive) | > 100 µM (inactive) | > 100 µM (inactive) | > 100 µM (inactive) | 
COc1ccc2cc(NC(=O)N/N=C\c3ccc([N+](=O)[O-])cc3)ccc2c1 | 53.3 µM (inactive) | 29.4 µM (inactive) | > 100 µM (inactive) | 31 µM (inactive) | > 100 µM (inactive) | 30.8 µM (inactive) | 20.1 µM (inactive) | 34.1 µM (inactive) | 12.9 µM (inactive) | > 100 µM (inactive) | 69 µM (inactive) | > 100 µM (inactive) | 37.6 µM (inactive) | > 100 µM (inactive) | 18.7 µM (inactive) | > 100 µM (inactive) | 35.7 µM (inactive) | 72.3 µM (inactive) | > 100 µM (inactive) | 
Cc1nc(O)nc(CC(O)(c2ccccc2)c2ccccc2)c1-c1ccccc1 | > 100 µM (inactive) | > 100 µM (inactive) | > 100 µM (inactive) | > 100 µM (inactive) |  | > 100 µM (inactive) | > 100 µM (inactive) | > 100 µM (inactive) | > 100 µM (inactive) |  |  | > 100 µM (inactive) | > 100 µM (inactive) | > 100 µM (inactive) | > 100 µM (inactive) | > 100 µM (inactive) |  | > 100 µM (inactive) | > 100 µM (inactive) | > 100 µM (inactive)
O=c1ccs[nH]1 | 8.79 µM (inactive) | 9.08 µM (inactive) | 7.26 µM (inactive) | 26.3 µM (inactive) | 2.54 µM (inactive) | 9.89 µM (inactive) | 14.2 µM (inactive) | 19.9 µM (inactive) | 3.97 µM (inactive) | 40.5 µM (inactive) | 13.6 µM (inactive) | 8.91 µM (inactive) | 7.05 µM (inactive) | 1.56 µM (inactive) | 51.1 µM (inactive) | 25.1 µM (inactive) | 2.7 µM (inactive) | 26.7 µM (inactive) | 4.06 µM (inactive) | 
CCC(CCC(C)C1CCC2C3CC=C4CC(OC5OC(CO)C(O)C(O)C5O)CCC4(C)C3CCC12C)C(C)C (centres undefined) | > 100 µM (inactive) | > 100 µM (inactive) | > 100 µM (inactive) | > 100 µM (inactive) | 26.4 µM (inactive) | > 100 µM (inactive) | > 100 µM (inactive) | > 100 µM (inactive) | > 100 µM (inactive) | > 100 µM (inactive) | > 100 µM (inactive) | > 100 µM (inactive) | > 100 µM (inactive) | > 100 µM (inactive) | > 100 µM (inactive) | > 100 µM (inactive) | > 100 µM (inactive) | > 100 µM (inactive) | > 100 µM (inactive) | 
N#Cc1[nH]c(=O)n(-c2ccccc2)c1N | > 10 µM (inactive) | > 10 µM (inactive) | 0.0995 µM (active) | > 10 µM (inactive) | > 10 µM (inactive) | > 10 µM (inactive) | > 10 µM (inactive) | > 10 µM (inactive) | > 10 µM (inactive) | > 10 µM (inactive) | > 10 µM (inactive) | > 10 µM (inactive) | > 10 µM (inactive) | > 10 µM (inactive) | > 10 µM (inactive) | > 10 µM (inactive) | > 10 µM (inactive) | > 10 µM (inactive) | > 10 µM (inactive) | 
CC1=NN(C(=O)c2ccncc2)C(=O)C1/N=N/c1ccc(F)cc1 (centres undefined) | 96.8 µM (inactive) | > 100 µM (inactive) | > 100 µM (inactive) | > 100 µM (inactive) |  | > 100 µM (inactive) | > 100 µM (inactive) | > 100 µM (inactive) |  |  |  | > 100 µM (inactive) | > 100 µM (inactive) |  | 81.1 µM (inactive) | > 100 µM (inactive) | > 100 µM (inactive) |  | > 100 µM (inactive) | > 100 µM (inactive)
CCN(/C=C1/C(=O)C(c2ccccc2)N(c2ccccc2)C1=O)CC (centres undefined) | > 10 µM (inactive) | > 10 µM (inactive) | > 10 µM (inactive) | > 10 µM (inactive) | > 10 µM (inactive) | > 10 µM (inactive) | > 10 µM (inactive) | > 10 µM (inactive) | > 10 µM (inactive) | > 10 µM (inactive) | > 10 µM (inactive) | > 10 µM (inactive) | > 10 µM (inactive) | > 10 µM (inactive) | > 10 µM (inactive) | > 10 µM (inactive) | > 10 µM (inactive) | > 10 µM (inactive) | > 10 µM (inactive) | 
